Experimental data published in patent US20240350489A1, “LOU064 FOR TREATING MULTIPLE SCLEROSIS” (NOVARTIS AG, priority 2021, published 2024).
Entries after “also recorded” stand apart in the source; their conditions may differ.

Key:
[1] = system: RatMOG-induced EAE; experiment: RatMOG-induced EAE, short eight-day (pre-disease) protocol; design: species or system mouse; conditions: dosed in vivo 8 days; LOU064 1, 3 and 10 mg/kg
Description: Isolated draining lymph node cells were incubated in vitro with RatMOG for 48 hours. Antigen-specific proliferation was determined by [^3H]-thymidine incorporation. Animals dosed in vivo with BTK inhibitors (LOU064, ibrutinib or Cyclosporin A (CsA) for 8 days. Group sizes n=4-5 per treatment.
To elucidate further whether BTK inhibitor efficacy was directly linked to reduction in B-cell antigen-presenting function compounds were tested in recombinant RatMOG-induced EAE model. This EAE model shares many of the characteristics of recombinant HumanMOG-induced EAE with MOG-specific T-cells infiltrating the CNS and resulting in neurological paralysis. However, RatMOG-induced EAE is B-cell independent and the dendritic cells are the dominant antigen-presenting cells type. Therefore, BTK inhibitors would be predicted to have no significant efficacy in RatMOG-induced EAE unless drug treatment was associated with a broader, non-specific, immune suppression. In addition to LOU064, which was used at 1 mg/kg, 3 mg/kg and 10 mg/kg, the reference compound ibrutinib was tested.
Cyclosporin A (CsA) acted as a positive control for direct T-cell immunosuppression. […] Ex vivo MOG-induced recall proliferation responses were studied using isolated splenocytes collected on day 8 post-immunization. In vivo BTK inhibitor treatment had no effect on recall responses (FIG. 12).

[2] = single/multiple doses 0.5 mg to 600 mg up to 18 days; 100 and 200 mg b.i.d.; cited from earlier work
[3] = Phase 2b trial in CSU, efficacy over 12 weeks; format: in vivo, human; conditions: 25 mg b.i.d. regimen
Description: (§5) In a Phase 2b, randomized, double-blind, placebo-controlled trial evaluating the efficacy and safety of LOU064 over 12 weeks in patients inadequately controlled by Hi-antihistamines, with at least moderately active CSU, patients received LOU064 10 mg q.d. (once daily), 35 mg q.d., 100 mg q.d., 10 mg b.i.d. (twice daily), 25 mg b.i.d., 100 mg b.i.d., or placebo (1:1:1:1:1:1:1 ratio).

[4] = Phase 2b dose range finding core study in CSU subjects, safety; conditions: for overall tolerability / safety profile: whole dose range
Description: as §5
In a dose range finding study conducted in CSU subjects the following doses are being tested: 10, 35 and 100 mg q.d. as well as 10, 25 and 100 mg b.i.d. and placebo over 12 weeks.

[5] = system: NF-L; experiment: NF-L concentration in serum, RatMOG EAE; format: in vivo, mouse; conditions: 30 mg/kg b.i.d., vs vehicle
From the text: In immunized mice, vehicle or LOU064-treated, the mean NF-L level was markedly higher as compared to naive mice.

[6] = system: canine P-gp knockout MDCK cell monolayers (MDCK-LE V2); experiment: Passive permeability, canine P-gp knockout MDCK cell monolayers (MDCK-LE V2); format: in vitro ADME; conditions: MDCK trans-well assay
Description: (§1) Passive permeability measurement using canine P-gp knockout MDCK cell monolayers (MDCK-LE V2)
(§2) A cell-based assay was used to assess the passive permeability of drug candidates in the context of gastro-intestinal absorption. A MDCK cell line where the endogenous canine Mdr1 (cMdr1) gene encoding P-gp has been knocked out is grown to form monolayers on a 96-well Transwell plate. Compounds are loaded in cassettes of three at a concentration of 10 μM each to the apical compartment and following a period of two hours incubation the amount of compound appearing in the basal chamber is quantitated by tandem mass spectrometry.
(§3) In particular, a MDCK cell line was generated by knocking-out the endogenous canine Mdr1 (cMdr1) gene. A subclone of this cell line was used to relate passive permeability to the fraction absorbed in human intestine using a set of 37 commercial compounds for which the fraction absorbed was known. The assay is able to estimate the fraction absorbed in human based on the Papp measured in the assay.
(§4) Samples were subject to RapidFire/MS/MS analysis and LC/MS/MS analysis. […]

[7] = as above; format: in vitro ADME; conditions: dog, MDCK; 10 μM apical, two hours incubation
Description: as §1, §2, §3, §4

[8] = target: T1, BTK (Rattus norvegicus, UniProt Q5S255); conditions: female rats, single oral dose of 3 mg/kg; cited from earlier work
T1 construct: from tissue; host or cells: blood and spleen of female rats
T1 sequence (Q5S255 1-660): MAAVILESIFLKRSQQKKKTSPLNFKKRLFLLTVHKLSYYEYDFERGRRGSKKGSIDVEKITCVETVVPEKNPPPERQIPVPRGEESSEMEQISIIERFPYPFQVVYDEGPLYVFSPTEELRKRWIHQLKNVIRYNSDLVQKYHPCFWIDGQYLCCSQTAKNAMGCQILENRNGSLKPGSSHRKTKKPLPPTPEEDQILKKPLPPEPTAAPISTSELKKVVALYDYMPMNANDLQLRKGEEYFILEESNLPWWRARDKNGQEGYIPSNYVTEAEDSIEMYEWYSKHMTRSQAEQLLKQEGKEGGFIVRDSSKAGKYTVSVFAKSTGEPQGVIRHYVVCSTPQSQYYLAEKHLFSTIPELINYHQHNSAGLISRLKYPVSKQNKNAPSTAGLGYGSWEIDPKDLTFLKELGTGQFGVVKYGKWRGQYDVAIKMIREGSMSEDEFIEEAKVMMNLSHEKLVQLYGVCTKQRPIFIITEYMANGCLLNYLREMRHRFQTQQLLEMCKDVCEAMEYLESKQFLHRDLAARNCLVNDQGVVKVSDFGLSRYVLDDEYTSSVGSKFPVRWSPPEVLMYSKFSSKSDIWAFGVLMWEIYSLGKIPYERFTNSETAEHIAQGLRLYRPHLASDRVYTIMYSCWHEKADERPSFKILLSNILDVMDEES

[9] = system: HumanMOG-induced EAE; experiment: HumanMOG-induced EAE in C57BL/6 mouse, prophylactic b.i.d. dosing; format: in vivo
From the text: There is no known naturally occurring MS-like disease in rodents or non-human primates. Following immunization of susceptible rodent strains with CNS-specific myelin proteins emulsified in complete Freund's adjuvant (CFA) an induced disease model develops. Experimental autoimmune encephalitis (EAE) mimics many of the pathological phenotypes of MS with focal, demyelinating lesions of the CNS white matter. In the C57BL/6 mouse there are two variants of myelin oligodendrocyte glycoprotein (MOG)-induced EAE depending on whether the human (HumanMOG) or rat (RatMOG) recombinant protein sequences are used (Lyons J.A. et al. (1999) European Journal of Immunology 29:3432-3439; Oliver A. R. et al. (2003) J Immunology 171: 462-468). Minor amino acid residue differences result in HumanMOG-induced EAE being exquisitely B-cell dependent as the APC, whilst RatMOG-induced EAE is B-cell independent and requires dendritic cells as the dominant APC population (Lyons et al 1999; Molnarfi N. et al. (2013) Journal of Experimental Medicine 210(13):2921-2937).
In HumanMOG-induced EAE the BTK inhibitor LOU064 was dosed twice daily (b.i.d.) at 3 mg/kg or 30 mg/kg at 12 hr intervals. Prophylactic dosing of LOU064 was initiated 6 hours prior to MOG/CFA immunization and continued until study end.
EAE was assessed using a scoring system, outlined in Table 1. Clinical scores and body weights were assessed daily throughout the experiment.
According to the animal regulations, humane endpoints for EAE mice were score 3 (>7 days), score 3.5 (>3 days), or immediately if score 4 was reached.
Using a short eight-day (pre-disease onset) EAE protocol, the immune priming mechanisms during the HumanMOG model were investigated.

[10] = core study, any LOU064 dose, listed as remibrutinib

C=CC(=O)N(C)CCOc1c(N)ncnc1-c1cc(F)cc(NC(=O)c2ccc(C3CC3)cc2F)c1C [LOU064, N-(3-(6-amino-5-(2-(N-methylacrylamido)ethoxy)pyrimidin-4-yl)-5-fluoro-2-methylphenyl)-4-cyclopropyl-2-fluorobenzamide]
RatMOG (auto)antigen recall proliferation [1]: failed to inhibit (auto)antigen recall proliferation
short-term safety [2]: has been shown in Phase I clinical studies
efficacy in CSU [3]: particularly effective compared to the other doses
Grade 3 creatinine elevation, patients ([4]; 10 mg q.d., Week 8, after starting a ketogenic diet): One
Grade 3 neutrophil count decrease ([4]; 35 mg q.d., Week 12): one
Grade 3 alanine transaminase elevation ([4]; 100 mg q.d., Week 8): one
deaths ([4]; core study): no deaths
laboratory findings, including blood cell counts ([4]; core study): no significant laboratory findings
AE Headache (PT) [4, 10]: 9.7%
AE Infections and infestations (SOC) [4, 10]: 24.0%
AE Skin and subcutaneous tissue disorders (SOC) [4, 10]: 16.9%
Common Terminology Criteria for AEs Grade 3 events (laboratory data) ([4]; core study, in total): three
patients with ALT>5xULN ([4]; core study, normalised on treatment): 1 patient
overall tolerability / safety profile [4]: well-tolerated across the whole dose range
overall tolerability / safety profile ([4]; listed as Remibrutinib): favorable safety profile across the whole dose range
mean serum NF-L level [5]: non-significant trend towards a lower mean NF-L level; also recorded: slightly reduced
recovery [6]: high recovery
Papp A→B at 2 h, 10 μM [7]: 37.3 ×10⁻⁶ cm/s
BTK occupancy in blood and spleen [8]: full BTK occupancy
neurologic symptoms and EAE-induced weight loss ([9]; 3 mg/kg b.i.d.): only a fairly weak reduction
cumulative disease burden ([9]; 30 mg/kg b.i.d.): significantly reduced
disease incidence / frequency of EAE onset ([9]; 30 mg/kg b.i.d.): reduction in the frequency of EAE onset; also recorded: significantly reduced disease incidence
peak EAE score ([9]; 30 mg/kg b.i.d.): significantly reduced
EAE clinical symptoms / EAE scores ([9]; 30 mg/kg p.o. b.i.d.): improvement in EAE scores; also recorded: significantly reduced clinical symptoms of EAE; also recorded: highly effective at inhibiting HumanMOG-induced EAE induction; also recorded: strongly reduced neurologic symptoms
inflammation-induced cachexia / daily body weight change ([9]; 30 mg/kg p.o. b.i.d.): significantly improved; also recorded: inhibited inflammation-induced cachexia; also recorded: strongly reduced
tolerability ([9]; 3 and 30 mg/kg p.o. b.i.d.): well tolerated in all animals
adverse events ([9]; mouse, in vivo): no adverse events were observed with either dose group
weight gain in immunized mice (inflammation-induced cachexia) ([9]; short eight-day pre-EAE protocol, 30 mg/kg twice daily): improved weight gain
